Measured values published in patent publication US12522590B2, “Brefeldin a derivatives, preparation method and use thereof” (OCEAN UNIVERSITY OF CHINA, priority 2019, dated 2026).
Values after ≈ are worked out from the molar mass of the structure shown. Where two headings read alike, the source gives them in different places.

What was measured:
[1] = test system: human lung cancer cells A549; test: Cell proliferation assay (CCK-8); type: cell-based; conditions: A549, 72 h
Excerpt: (§1) CCK-8 method: The CCK-8 method is a highly sensitive, non-radioactive colorimetric assay for the determination of the number of viable cells in cell proliferation or cytotoxicity assays. The orange formazan dye produced by the bioreduction of CCK-8 by intracellular dehydrogenase is soluble in the cell culture medium, and the amount of formazan dye produced is proportional to the number of living cells. The kit used in this method is the tetrazolium salt-WST-8 (2-(2-methoxy-4-nitrophenyl)-3-(4-nitrophenyl)-5-(2,4-disulfophenyl)-2H-tetrazolium monosodium salt) developed by Dojindo Chemical Research Institute (Dojindo), which is capable of being reduced to a water-soluble formazan dye in the presence of the electronic carrier 1-Methoxy PMS.
(§2) Human cervical cancer cells Hela, pancreatic cancer cells PANC-1, esophageal cancer cells Eca-109, human leukemia cells K562, human lung cancer cells A549, human liver cancer cells HepG2, human gastric cancer cells MKN-45, human breast cancer cells MCF7 were cultured in DMEM medium containing 10% FBS (fetal bovine serum), 100 U/mL penicillin and 100 μg/ml streptomycin. Hepatocellular carcinoma cells Bel-7402 were cultured in RPMI-1640 medium containing 10% FBS (fetal bovine serum), 100 U/ml penicillin and 100 μg/ml streptomycin. All cells were placed in a cell culture incubator at 37° C. with 5% CO2. Cells fluid was changed every 3-5 days, and after 80% cell fusion, trypsin digestion and passaging were performed to keep the cells in good logarithmic growth phase.
(§3) All the samples to be tested were dissolved in DMSO.
(§4) Cells in logarithmic growth phase were inoculated in 96-well plates with 5000 cells/well respectively, and after 24 h of incubation, samples were added (final concentrations as shown in the table), and biplicate wells were set up for each sample. The amount of solvent of DMSO was not higher than 2‰. After 72 h, 10 μL of CCK-8 solution was added to each well and incubated for 1.5˜3 h at 37° C. The OD value at 450 nm was measured on an plate reader. Inhibition rate (%)=(1−[(OD450 dosed well−OD450 blank well)/(OD450 control well−OD450 blank well)])×100%
(§5) The fitted IC50 values were calculated using the log (inhibitor) vs. response—Variable slop analysis method in GraphPad Prism software.

[2] = test system: human leukemia cells K562; test: Cell proliferation assay (CCK-8); type: cell-based; conditions: K562, 72 h
Excerpt: as §1, §2, §3, §4, §5

[3] = test system: human breast cancer cells MCF7; test: Cell proliferation assay (CCK-8); type: cell-based; conditions: MCF7, 72 h
Excerpt: as §1, §2, §3, §4, §5

[4] = test system: Human cervical cancer cells Hela; test: Cell proliferation assay (CCK-8); type: cell-based; conditions: 72 h
Excerpt: as §1, §2, §3, §4, §5

[5] = test system: human liver cancer cells HepG2; test: Cell proliferation assay (CCK-8); type: cell-based; conditions: HepG2, 72 h
Excerpt: as §1, §2, §3, §4, §5

[6] = test system: human gastric cancer cells MKN-45; test: Cell proliferation assay (CCK-8); type: cell-based; conditions: MKN-45, 72 h
Excerpt: as §1, §2, §3, §4, §5

[7] = Solubility test (shake 37° C., 24 h, HPLC); type: physicochemical; conditions: x ± s; for solubility at 24 h: thermodynamic from solid
Protocol: The term “solubility” refers to the mass of solute dissolved when a solid substance reaches saturation state in 100 g solvent at a certain temperature. Solubility test refer to the following references: ZHU Shang-bin, et al. Preparation, characterization, and physicochemical properties of arbutin phospholipid complex[J]. Chinese Traditional and Herbal Drugs. 2020, 1-10.
Methods: Excess BFA and the compounds disclosed herein were added to 10 mL of three solvents, methanol, acetone and 5% DMSO+95% H2O, respectively, and shaken on a shaker at 37° C. at 100 r/min for 24 h. After 24 h, the samples were centrifuged at 15 000 r/min for 15 min to remove the undissolved compounds. The supernatant was filtered using a 0.45 μm membrane filter. The supernatant was appropriately diluted with methanol and contents of the compounds were determined by HPLC method to calculate the solubility.

[8] = test system: pancreatic cancer cells PANC-1; test: Cell proliferation assay (CCK-8); type: cell-based, human; conditions: PANC-1, 72 h
Excerpt: as §1, §2, §3, §4, §5

[9] = test system: esophageal cancer cells Eca-109; test: Cell proliferation assay (CCK-8); type: cell-based, human; conditions: Eca-109, 72 h
Excerpt: as §1, §2, §3, §4, §5

[10] = Pharmacokinetic evaluation (plasma BFA by LC/MS/MS); type: in vivo, SD rats; conditions: for AUCINF / AUClast / Cmax / MRTINF / T1/2 / Tmax: iv
Protocol: SD rats were weighed after an overnight fasting of 15 hours and randomly grouped according to weights. The appropriate amount of the compound was accurately weighed, and a final volume of 5% DMSO, 10% Solutol, and 85% Saline was added and vortexed or sonicated to make a thorough mixing to provide a 4 mg/mL solution for intravenous administration (iv.). Venous blood was taken at the time points of 0, 0.083 (iv. group only), 0.25, 0.5, 1.0, 2.0, 5.0, 7.0 and 24 h, via jugular vein or other suitable means, with approximately 0.20 mL of each sample collected, anticoagulated with sodium heparin (with 6.25 μL of 200 mM DDVP/tube added), and placed on ice after collection. The plasma was separated by centrifugation within 2 hours (centrifugal force 6800 g, 6 min, 2-8° C.). The collected plasma samples were stored in a −70° C. refrigerator before analysis, and the remaining plasma samples after analysis were kept stored at −20° C. or −70° C. until LC/MS/MS analysis was performed. The accuracy of QC samples was evaluated while analyzing the samples, and more than 66% of the QC samples were required to have an accuracy between 80-120%. When plasma drug concentration-time curves were plotted, BLQ were recorded as 0. For the calculation of pharmacokinetic parameters, the concentration before dosing was counted as 0; BLQ before Cmax (including “No peak”) was counted as 0; BLQ after Cmax (including “No peak”) was not included in the calculation. Pharmacokinetic parameters such as AUC(0-t), T1/2, Cmax, Tmax and MRT were calculated according to the blood concentration data of BFA at different time points using WinNonlin.

Kunming breed mice = test: Acute toxicity test, single intragastric administration; type: in vivo
Excerpt: Objective: Observation of toxic effects of compounds after a single intragastric administration (ig.) to mice
1) Agents: Compounds disclosed herein were formulated to a suitable concentration.
2) Animals: Kunming breed mice, weight 18-22 g, male.

[11] = aqueous with cosolvent or surfactant or cyclodextrin, 5% DMSO + 95% H2O, n = 3, read-out: Solubility, 5% DMSO + 95% H2O
[12] = organic solvent or mixture, acetone, n = 3, read-out: Solubility, Acetone
[13] = organic solvent or mixture, methanol, n = 3, read-out: Solubility, Methanol
[14] = mice, single ig., high and low doses (BFA effective amount conversion)
[15] = mice, single ig., high and low doses (BFA effective amount conversion), within 72 h
[16] = Sprague-Dawley, rat, in vivo, 30 mg/kg
[17] = SD rats, 20 mg/kg, blood concentration of BFA

Compound: C[C@H]1CCC/C=C/[C@@H]2C[C@H](OC(=O)OCc3cccnc3)C[C@H]2[C@H](OC(=O)OCc2cccnc2)/C=C/C(=O)O1 [Compound D, reference compound]
- IC50 ([1]; Homo sapiens): 100 to 1000 nM
- IC50 ([2]; Homo sapiens): 100 to 1000 nM
- IC50 ([3]; Homo sapiens): 100 to 1000 nM
- IC50 ([4]; Homo sapiens): 1000 to 10000 nM
- IC50 ([5]; Homo sapiens): 1000 to 10000 nM
- IC50 ([6]; Homo sapiens): 1000 to 10000 nM
- solubility at 24 h [7, 11]: 0.51 ± 0.13 mg/mL
- solubility at 24 h [7, 12]: 21.2 ± 1.12 mg/mL (≈ 38.4 mM)
- solubility at 24 h [7, 13]: 20.4 ± 1.41 mg/mL (≈ 37.1 mM)
- IC50 ([8]; Homo sapiens): 1000 to 10000 nM
- IC50 ([9]; Homo sapiens): 1000 to 10000 nM
- Blood concentrations detected within 1 h ([10]; rat, in vivo, 40 mg/kg): low blood concentrations
- Drug in blood after 1 h ([10]; rat, in vivo, 40 mg/kg): basically undetectable

Compound: COc1ccc(COC(=O)O[C@@H]2C[C@H]3[C@H](O)/C=C/C(=O)O[C@@H](C)CCC/C=C/[C@@H]3C2)cn1 [Compound 6]
- Mental condition after administration (Kunming breed mice; [14]): good mental conditions
- Death within 72 h (Kunming breed mice; [15]): no death
- IC50 ([1]; Homo sapiens): < 100 nM
- IC50 ([2]; Homo sapiens): 100 to 1000 nM
- IC50 ([3]; Homo sapiens): 100 to 1000 nM
- IC50 ([4]; Homo sapiens): 100 to 1000 nM
- IC50 ([5]; Homo sapiens): 100 to 1000 nM
- IC50 ([6]; Homo sapiens): < 100 nM
- solubility at 24 h [7, 11]: 2.95 ± 1.61 mg/mL
- solubility at 24 h [7, 12]: 70.6 ± 1.44 mg/mL (≈ 158 mM)
- solubility at 24 h [7, 13]: 70.4 ± 3.35 mg/mL (≈ 158 mM)
- IC50 ([8]; Homo sapiens): 100 to 1000 nM
- IC50 ([9]; Homo sapiens): 100 to 1000 nM

Compound: C[C@H]1CCC/C=C/[C@@H]2C[C@H](OC(=O)OCc3cccnc3)C[C@H]2[C@H](O)/C=C/C(=O)O1 [Compound 1, BFA-7-(pyridine-3-ylmethyl)carbonate]
- Mental condition after administration (Kunming breed mice; [14]): good mental conditions
- Death within 72 h (Kunming breed mice; mouse, in vivo): no death
- IC50 ([1]; Homo sapiens): < 100 nM
- IC50 ([2]; Homo sapiens): 100 to 1000 nM
- IC50 ([3]; Homo sapiens): 100 to 1000 nM
- IC50 ([4]; Homo sapiens): 100 to 1000 nM
- IC50 ([5]; Homo sapiens): < 100 nM
- IC50 ([6]; Homo sapiens): < 100 nM
- solubility at 24 h [7, 11]: 2.73 ± 0.21 mg/mL
- solubility at 24 h [7, 12]: 68.7 ± 2.53 mg/mL (≈ 165 mM)
- solubility at 24 h [7, 13]: 74.3 ± 2.52 mg/mL (≈ 179 mM)
- IC50 ([8]; Homo sapiens): 100 to 1000 nM
- IC50 ([9]; Homo sapiens): < 100 nM
- AUCINF [10, 16]: 5763.29 ng·h/mL
- AUClast [10, 16]: 5766.31 ng·h/mL
- Cmax [10, 16]: 7192.20 ng/mL
- MRTINF [10, 16]: 11.4 min
- T1/2 [10, 16]: 15 min
- Tmax [10, 16]: 15 min

Compound: C[C@H]1CCC/C=C/[C@@H]2C[C@H](OC(=O)OCc3cnc4ccccc4c3)C[C@H]2[C@H](O)/C=C/C(=O)O1 [Compound 11, BFA-7-(quinoline-3-ylmethyl)carbonate]
- Mental condition after administration (Kunming breed mice; [14]): good mental conditions
- Death within 72 h (Kunming breed mice; [15]): no death
- IC50 ([1]; Homo sapiens): 100 to 1000 nM
- IC50 ([2]; Homo sapiens): 100 to 1000 nM
- IC50 ([3]; Homo sapiens): 100 to 1000 nM
- IC50 ([4]; Homo sapiens): 100 to 1000 nM
- IC50 ([5]; Homo sapiens): 100 to 1000 nM
- IC50 ([6]; Homo sapiens): 100 to 1000 nM
- solubility at 24 h [7, 11]: 2.65 ± 1.8 mg/mL
- solubility at 24 h [7, 12]: 67.6 ± 2.74 mg/mL (≈ 145 mM)
- solubility at 24 h [7, 13]: 69.3 ± 4.35 mg/mL (≈ 149 mM)
- IC50 ([8]; Homo sapiens): < 100 nM
- IC50 ([9]; Homo sapiens): < 100 nM

Compound: C[C@H]1CCC/C=C/[C@@H]2C[C@H](O)C[C@H]2[C@H](O)/C=C/C(=O)O1 [BFA, Brefeldin A]
- Mortality within 24 h (Kunming breed mice; mice, single ig., high dose 1000 mg/kg, within 24 h): all animals died
- Animals died within 72 h (Kunming breed mice; mice, single ig., low dose 750 mg/kg, within 72 h): ⅔
- IC50 [1]: 100 to 1000 nM
- IC50 [2]: 100 to 1000 nM
- IC50 [3]: < 100 nM
- IC50 [4]: 100 to 1000 nM
- IC50 [5]: 100 to 1000 nM
- IC50 [6]: 100 to 1000 nM
- Solubility, 5% DMSO + 95% H2O ([7]; 5% DMSO + 95% H2O, n = 3): 0.085 ± 0.03 mg/mL
- Solubility, Acetone ([7]; acetone, n = 3): 3.13 ± 1.24 mg/mL (≈ 11.2 mM)
- Solubility, Methanol ([7]; methanol, n = 3): 3.13 ± 1.24 mg/mL (≈ 11.2 mM)
- IC50 [8]: < 100 nM
- IC50 [9]: 100 to 1000 nM
- AUCINF [10, 17]: 4448.31 ng·h/mL
- AUClast [10, 17]: 4450.24 ng·h/mL
- Cmax [10, 17]: 5744.26 ng/mL
- MRTINF [10, 17]: 11.4 min
- T1/2 [10, 17]: 25.2 min
- Tmax [10, 17]: 15 min
